From patent US9288989B2, “Synergistic weed control from applications of penoxsulam and acetochlor” (Dow AgroSciences LLC, priority 2013, dated 2016)
Values joined by “and” are separate entries in the source; they are usually repeats but may differ in a detail not shown here. Equal values may be shown once.

Assays:
[1] = tested on: AMARE; experiment: Pre-emergence field trial, weed control, AMARE; format: in vivo, Amaranthus retroflexus; settings: 55 days
Method: (§1) The (a) penoxsulam or an agriculturally acceptable salt thereof is mixed with or applied in combination with (b) acetochlor or an agriculturally acceptable salt thereof in an amount sufficient to induce a synergistic herbicidal effect. […] As described in the Herbicide Handbook of the Weed Science Society of America, Ninth Edition, 2007, p. […] In some embodiments, the damage or injury to the undesired vegetation caused by the compositions and methods disclosed herein is evaluated using a scale from 0% to 100%, when compared with the untreated control vegetation, wherein 0% indicates no damage to the undesired vegetation and 100% indicates complete destruction of the undesired vegetation.
(§2) In Colby's equation, the value E corresponds to the effect (plant damage or injury) that is to be expected if the activity of the individual compounds is additive. If the observed effect is higher than the value E calculated according to the Colby equation, then a synergistic effect is present according to the Colby equation. […]
(§3) Colby's equation was used to determine the herbicidal effects expected from the mixtures, as described above. The results were measured at the evaluation intervals provided in Table 1 after the first application of the compositions. […]

[2] = tested on: CHEAL; experiment: Pre-emergence field trial, weed control, CHEAL; format: in vivo, Chenopodium album L.
Description: (§4) The (a) penoxsulam or an agriculturally acceptable salt thereof is mixed with or applied in combination with (b) acetochlor or an agriculturally acceptable salt thereof in an amount sufficient to induce a synergistic herbicidal effect. […] As described in the Herbicide Handbook of the Weed Science Society of America, Ninth Edition, 2007, p. 429, “‘synergism’ [is] an interaction of two or more factors such that the effect when combined is greater than the predicted effect based on the response to each factor applied separately.” Synergistic in the herbicide context can mean that the use of (a) and (b) as defined above results in an increased weed control effect compared to the weed control effects that are possible with the use of (a) or (b) alone. In some embodiments, the damage or injury to the undesired vegetation caused by the compositions and methods disclosed herein is evaluated using a scale from 0% to 100%, when compared with the untreated control vegetation, wherein 0% indicates no damage to the undesired vegetation and 100% indicates complete destruction of the undesired vegetation.
(§5) In Colby's equation, the value E corresponds to the effect (plant damage or injury) that is to be expected if the activity of the individual compounds is additive. If the observed effect is higher than the value E calculated according to the Colby equation, then a synergistic effect is present according to the Colby equation.
(§6) Field trials were conducted with applications made in the area of naturally occurring weed populations in multiple countries. The soil or water was treated prior to the emergence of target plants. All treatments were applied using a randomized complete block trial design, with 3-5 replications per treatment.
(§7) Treatments consisted of penoxsulam and acetochlor applied alone and in combination. Spray solutions were prepared using an appropriate amount of dilution to treat the area of the plots based on use rates and water volumes necessary based on a per hectare basis. Spray solutions were prepared and applied with the specified active ingredients in single and two-way combinations to be able to perform Colby synergy and safening calculations. Formulated products were applied to the soil with a backpack sprayer equipped with flat fan nozzles calibrated to deliver from 200 to 300 L/ha at a normal spray height above the soil, at spray pressures ranging from 200 to 400 kilopascals (kPa). […]
as §3

[3] = tested on: VIOAR; experiment: Pre-emergence field trial, weed control, VIOAR; format: in vivo, Viola arvensis Murr.; settings: 61 days
Method: as §1, §2, §3

[4] = tested on: GALAP; experiment: Pre-emergence field trial, weed control, GALAP; format: in vivo, Galium aparine L.
Description: as §4, §5, §6, §7, §3

[5] = tested on: SOLNI; experiment: Pre-emergence field trial, weed control, SOLNI; format: in vivo, Solanum nigrum
Description: as §4, §5, §6, §7, §3

[6] = tested on: ECHCO; experiment: Pre-emergence field trial, weed control, ECHCO; format: in vivo, Echinochloa colonum (L.) Link
Description: as §4, §5, §6
(§8) Treatments consisted of penoxsulam and acetochlor applied alone and in combination. Spray solutions were prepared using an appropriate amount of dilution to treat the area of the plots based on use rates and water volumes necessary based on a per hectare basis. Spray solutions were prepared and applied with the specified active ingredients in single and two-way combinations to be able to perform Colby synergy and safening calculations. Formulated products were applied to the soil with a backpack sprayer equipped with flat fan nozzles calibrated to deliver from 200 to 300 L/ha at a normal spray height above the soil, at spray pressures ranging from 200 to 400 kilopascals (kPa). Formulated products were applied into flooded rice paddy by calculating the area to be treated, calculating the amount of active ingredient necessary to treat the area at the specified rates, then mixing the treatments in water to apply 8 L/ha of water to the plots.
(§9) Colby's equation was used to determine the herbicidal effects expected from the mixtures, as described above. The results were measured at the evaluation intervals provided in Table 1 after the first application of the compositions. […] The herbicide tank-mix combinations tested, application rates and ratios employed, plant species tested, and results are given below.

[7] = tested on: CYPRO; experiment: Pre-emergence field trial, weed control, CYPRO; format: in vivo, Cyperus rotundus L.; settings: 35 days
Method: as §1, §2, §3

[8] = tested on: TRBSS; experiment: Pre-emergence field trial, weed control, TRBSS; format: in vivo, species of the genus Tribulus
Description: as §4, §5, §6, §8, §9

[9] = tested on: POLPE; experiment: Pre-emergence field trial, weed control, POLPE; format: in vivo, Polygonum persicaria L.; settings: 14 days
Method: as §1, §2, §3

[10] = tested on: POLCO; experiment: Pre-emergence field trial, weed control, POLCO; format: in vivo, Polygonum convolvulus L.
Description: as §4, §5, §6, §8, §9

[11] = tested on: POLLA; experiment: Pre-emergence field trial, weed control, POLLA; format: in vivo, Polygonum lapathifolium L.
Description: as §4, §5, §6, §8, §9

[12] = tested on: corn (ZEAMX); experiment: Pre-emergence field trial, crop injury, corn; settings: in vivo
Method: as §1, §2
Colby's equation was used to determine the herbicidal effects expected from the mixtures, as described above. The results were measured at the evaluation intervals provided in Table 2 after the first application of the compositions. […]

[13] = 64 days, acetochlor 1900 g ai/ha
[14] = 28 days, acetochlor 2300 g ai/ha

SMILES: COc1cnc(OC)n2nc(NS(=O)(=O)c3c(OCC(F)F)cccc3C(F)(F)F)nc12 [Penoxsulam]
- Mean % weed control ([1]; penoxsulam 12 g ai/ha): 30%
- Mean % weed control ([2]; 34 days, penoxsulam 20 g ai/ha): 56.67%
- Mean % weed control ([2]; 61 days, penoxsulam 20 g ai/ha): 50%
- Mean % weed control ([3]; penoxsulam 20 g ai/ha): 0%
- Mean % weed control ([4]; 38 days, penoxsulam 20 g ai/ha): 40%
- Mean % weed control ([4]; 64 days, penoxsulam 20 g ai/ha): 60%
- Mean % weed control ([5]; 64 days, penoxsulam 20 g ai/ha): 40%
- Mean % weed control ([5]; 92 days, penoxsulam 20 g ai/ha): 30%
- Mean % weed control ([6]; 20 days, penoxsulam 15 g ai/ha): 38.75%
- Mean % weed control ([6]; 20 days, penoxsulam 20 g ai/ha): 50%
- Mean % weed control ([6]; 35 days, penoxsulam 15 g ai/ha): 55%
- Mean % weed control ([7]; penoxsulam 20 g ai/ha): 39.38%
- Mean % weed control ([8]; 35 days, penoxsulam 5 g ai/ha): 32%
- Mean % weed control ([8]; 35 days, penoxsulam 10 g ai/ha): 38.5%
- Mean % weed control ([8]; 49 days, penoxsulam 5 g ai/ha): 13%
- Mean % weed control ([8]; 49 days, penoxsulam 10 g ai/ha): 32%
- Mean % weed control ([9]; penoxsulam 20 g ai/ha): 80%
- Mean % weed control ([10]; 14 days, penoxsulam 15 g ai/ha): 85%
- Mean % weed control ([10]; 14 days, penoxsulam 20 g ai/ha): 87.5%
- Mean % weed control ([10]; 28 days, penoxsulam 15 g ai/ha): 65%
- Mean % weed control ([10]; 28 days, penoxsulam 20 g ai/ha): 77.5%
- Mean % weed control ([11]; 14 days, penoxsulam 15 g ai/ha): 85%
- Mean % weed control ([11]; 28 days, penoxsulam 15 g ai/ha): 75%
- Mean % weed control ([11]; 28 days, penoxsulam 20 g ai/ha): 90%
- Mean % weed control ([11]; 98 days, penoxsulam 15 g ai/ha): 71.25%

SMILES: CCOCN(C(=O)CCl)c1c(C)cccc1CC [Acetochlor, 2-chloro-N-(ethoxymethyl)-N-(2-ethyl-6-methylphenyl)acetamide]
- Mean % weed control ([1]; acetochlor 2000 g ai/ha): 0%
- Mean % weed control ([2]; 34 days, acetochlor 1400 g ai/ha): 3.33%
- Mean % weed control ([2]; 61 days, acetochlor 1400 g ai/ha): 36.67%
- Mean % weed control ([3]; acetochlor 1400 g ai/ha): 0%
- Mean % weed control ([4]; 38 days, acetochlor 1900 g ai/ha): 6.67%
- Mean % weed control [4, 13]: 10%
- Mean % weed control [5, 13]: 13.33%
- Mean % weed control ([5]; 92 days, acetochlor 1900 g ai/ha): 3.33%
- Mean % weed control ([6]; 20 days, acetochlor 15 g ai/ha): 22.5%
- Mean % weed control ([6]; 35 days, acetochlor 15 g ai/ha): 15%
- Mean % weed control ([7]; acetochlor 15 g ai/ha): 4.25%
- Mean % weed control ([8]; 35 days, acetochlor 1800 g ai/ha): 78%
- Mean % weed control ([8]; 49 days, acetochlor 1800 g ai/ha): 63%
- Mean % weed control ([9]; acetochlor 1400 g ai/ha): 36.67%
- Mean % weed control [10, 14]: 5% and 12.5%
- Mean % weed control ([11]; 14 days, acetochlor 2300 g ai/ha): 20%
- Mean % weed control [11, 14]: 10% and 7.5%
- Mean % weed control ([11]; 98 days, acetochlor 2300 g ai/ha): 12.5%
- Mean % crop injury [12]: 0%
